Measurements taken from patent US20030109699A1, “Amphiphilic quinolylpolyamines as transfer agents for biologically active macromolecules” (priority 1999, published 2003).

What was measured:
eucaryotic cells = details: 10-100 μM chloroquine added to the cell culture medium; cited from earlier work
[1] = tested on: different tumor cell lines (HeLa, Hec1a, SKOV3, MCF-7, Hey, SKBR3); details: lipids mixed with DOPE; all tested cell lines; versus Transfectam, Lipofectamine and DC-Chol; GFP and beta-galactosidase reporter plasmids; FIGS. 5 and 6
From the text: In general: The cell lines used HeLa, Hec1a, SKOV3, MCF-7, Hey, SKBR3, T47D, 293 were cultivated according to standard ATCC conditions. Commercial transfection reagents Transfectam®, Lipofectamine™ und Superfect were used according to the manufacturer's instructions. DC-Chol was synthesized as described previously [L. Huang et al. Biochem. Biophys. Res. Commun. 179(1) (1991) 280-285] and was formulated with DOPE for the transfection experiments.
The day before the transfection 40-50000 cells were seeded per well in a 24-well cell culture plate (appr. 70% confluence). For the preparation of the complexes 3 μl (for SKBR3, MCF-7, Hey) respectively 6 μl (for HeLa, Hec1a, SKOV3) of the aqueous lipid reagent (30 mol % lipid #2 respectively #7 respectively #9; 70 mol % DOPE) were added to a solution of each 2 μg of the plasmid-DNA (pEGFP-N1; Clontech Laboratories, Inc; Katalog-Nr. 6085-1) in 300 μl of fcs-free medium and were incubated at room temperature for 30 min. Shortly before the transfection the cell culture medium was replaced with 700 μl fresh medium (14.3% fcs). After addition of the lipid-DNA complexes and incubation of the cells for 48 hours the percentage of GFP expressing fluorescent cells was determined by FACS-analysis. For this the cells were washed with PBS and were separated by trypsination and subsequent centrifugation. The thus obtained cell pellet was resuspended in 500 μl PBS and the percentage of fluorescent cells was determined by FACS-analysis using a FACScan device (Becton Dickinson).

breast tumor cells MCF7 = details: FIG. 9; for transfection efficiency with pEGFP-N1-plasmid compared with Transfectam: mixtures with 70 mol % DOPE in ethanolic solutions, MCF7; for percentage of transfected cells after pre-complexing of the DNA with protamine sulfate: mixtures with 70 mol % DOPE, ethanolic, DNA pre-complexed with protamine sulfate versus not
Description: The day before the transfection 40-50000 cells were seeded per well in a 24-well cell culture plate (appr. 70% confluence). For the preparation of the complexes 4 μl of the ethanolic lipid reagent (30 mol % lipid #2 respectively #7; 70 mol % DOPE) were added to a solution of each 2 μg of the plasmid-DNA (pEGFP-N1; Clontech Laboratories, Inc; catalog-nr. 6085-1) in 300 μl fcs-free medium and were incubated at room temperature for 30 min. For the transfection in the presence of protamine sulfate 2 μg plasmid-DNA was pre-complexed with 2 μg protamine sulfate in 300 μl serum free medium for 10 min whereupon 4 μl of the lipid reagent were added. Shortly before the transfection the cell culture medium was replaced with 700 μl fresh medium (14.3% fcs). After addition of the lipid-DNA complexes and incubation of the cells for 48 hours the percentage of GFP expressing fluorescent cells was determined by FACS-analysis as described above.

Row | SMILES | effect on the efficiency of the cationic amphiphiles (eucaryotic cells) | transfection efficiency compared with known lipid formulations [1] | transfection efficiency with pEGFP-N1-plasmid compared with Transfectam (breast tumor cells MCF7) | percentage of transfected cells after pre-complexing of the DNA with protamine sulfate (breast tumor cells MCF7)
1 | CCN(CC)CCCC(C)Nc1ccnc2cc(Cl)ccc12 (centres unmarked) [chloroquine] | significantly increases the efficiency |  |  | 
2 | CCN(CC)CCN(CCNc1ccnc2cc(Cl)ccc12)C(=O)O[C@H]1CC[C@@]2(C)C(=CC[C@H]3[C@@H]4CC[C@H]([C@H](C)CCCC(C)C)[C@@]4(C)CC[C@@H]32)C1.Cl [#2, 7-chloro-4-[N^1-(N^4-carboxycholesteryl)-(N^7-diethyl)-1,4,7-triaza-heptyl]-quinoline Hydrochloride] |  | higher efficiency | significantly more efficient | significant increase
3 | CC(C)CCC[C@@H](C)[C@H]1CC[C@H]2[C@@H]3CC=C4C[C@@H](OC(=O)N(CCCNc5ccnc6cc(Cl)ccc56)CCN(C)C)CC[C@]4(C)[C@H]3CC[C@]12C.Cl [#7, 7-chloro-4-[N^1-(N^5-carboxycholesteryl)-(N^8-dimethyl)-1,5,8-triaza-octyl]-quinoline Hydrochloride] |  | higher efficiency | significantly more efficient | significant increase
4 | CCCCCCCC/C=C\CCCCCCCC(=O)OC[C@@H](CN(CCCNc1ccnc2cc(Cl)ccc12)CCN(C)C)OC(=O)CCCCCCC/C=C\CCCCCCCC [#9, 7-chloro-4-[N^1-(N^5-(2(R),3-dioleoyloxy)propyl)-(N^8-dimethyl)-1,5,8-triaza-octyl]-quinoline] |  | higher efficiency |  | 
